Experimental findings from US8575364B2, “Modulators of serotonin receptor” (Janssen Pharmaceutica NV, priority 2008, dated 2013) are described below.

Where a name gives a salt, the structure may show the parent alone.

This test deals with rat 5-HT7 receptors (Rattus norvegicus (Rat), UniProt P32305). The experiment in a line: r5-HT7 competitive radioligand binding assay ([3H]5-CT). Particulars: membrane fractions of HEK-293 cells recombinantly expressing rat 5-HT7. As for the experimental part: Compound affinity for the rat 5-HT7 receptor subtype was evaluated by competitive radioligand binding assays using 5-carboxamido[^3H]tryptamine ([^3H]5-CT) (Amersham Biosciences, cat. 90000403) detection. HitHunter™ cAMP assays are in-vitro based competitive immunoassays. […] Cells were pre-incubated with test compounds for 10 minutes. For agonistic testing, the concentration of test compound that produced a half-maximal response is represented by the EC50 value. Compounds were assayed in their free form or as salts, as indicated in the Examples section above.
Chain of rat 5-HT7 receptors (P32305 1-435): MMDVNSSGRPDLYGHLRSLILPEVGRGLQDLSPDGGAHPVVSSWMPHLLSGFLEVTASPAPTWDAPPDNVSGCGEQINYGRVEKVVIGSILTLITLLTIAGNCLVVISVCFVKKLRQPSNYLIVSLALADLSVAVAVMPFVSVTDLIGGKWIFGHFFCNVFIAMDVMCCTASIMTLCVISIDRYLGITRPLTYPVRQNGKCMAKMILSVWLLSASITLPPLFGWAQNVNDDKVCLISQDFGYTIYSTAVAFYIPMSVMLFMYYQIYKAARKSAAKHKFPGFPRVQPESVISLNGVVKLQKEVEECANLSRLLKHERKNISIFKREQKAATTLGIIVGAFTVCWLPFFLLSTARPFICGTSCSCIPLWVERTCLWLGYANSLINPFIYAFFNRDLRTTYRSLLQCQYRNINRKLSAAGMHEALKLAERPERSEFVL
As a reminder, the Ki is a dissociation constant, usually derived from enzyme kinetics or from competition with a known ligand. In the case of `COc1ccc(-c2c(C)cccc2C)cc1OC1CNC1` [Example 6, 3-(4-Methoxy-2′,6′-dimethyl-biphenyl-3-yloxy)-azetidine trifluoroacetate], the Ki amounted to 0.0082 µM.
As for `Cc1cccc(-c2cccc(OC3CNC3)c2)c1` [Example 22, 3-(3′-Methyl-biphenyl-3-yloxy)-azetidine], the figure is 0.752 µM.
The result for `Cc1cc(-c2ccc(Cl)cc2C2CCNC2)ccc1F` (racemic) [Example 66, (±)-3-(4-Chloro-4′-fluoro-3′-methyl-biphenyl-2-yl)-pyrrolidine] reads 0.38 µM; that for `COc1ccc(-c2cccc(C)c2)cc1OC1CNC1` [Example 13, 3-(4-Methoxy-3′-methyl-biphenyl-3-yloxy)-azetidine], 1 µM; that for `Cc1cccc(-c2ccc(Cl)c(OC3CNC3)c2)c1` [Example 27, 3-(4-Chloro-3′-methyl-biphenyl-3-yloxy)-azetidine trifluoroacetate], 0.41 µM.
The result for `Cc1ccccc1-c1ccccc1C1CCNC1` (racemic) [Example 59, (±)-3-(2′-Methyl-biphenyl-2-yl)-pyrrolidine] reads 0.21 µM; that for `CCN(CC)C(=O)c1ccc(-c2ccccc2C(F)(F)F)cc1OC1CNC1` [Example 37, 3-(Azetidin-3-yloxy)-2′-trifluoromethyl-biphenyl-4-carboxylic acid diethylamide], 2.27 µM.
Turning to `COc1ccc(-c2cccc(F)c2F)cc1C1CCNC1` (racemic) [Example 45, (±)-3-(2′,3′-Difluoro-4-methoxy-biphenyl-3-yl)-pyrrolidine], the Ki worked out at 0.052 µM.
As for `COc1ccccc1-c1ccccc1C1CCNC1` (racemic) [Example 61, (±)-3-(2′-Methoxy-biphenyl-2-yl)-pyrrolidine], the Ki was found to be 0.3 µM.
As for `COc1ccc(-c2ccccc2C(F)(F)F)cc1C1CCNC1` (racemic) [Example 47, (±)-3-(4-Methoxy-2′-trifluoromethyl-biphenyl-3-yl)-pyrrolidine], the figure is 0.00798 µM; as for `Cc1cc(-c2ccc(Cl)cc2OC2CNC2)ccc1F` [Example 41, 3-(4-Chloro-4′-fluoro-3′-methyl-biphenyl-2-yloxy)-azetidine], 0.47 µM.
The result for `Clc1ccc(-c2ccccc2C2CCNC2)cc1` (centres unmarked) [Example 56, 3-(4′-Chloro-biphenyl-2-yl)-pyrrolidine] reads 0.18 µM.
The result for `Clc1cccc(-c2ccc(Cl)cc2C2CCNC2)c1` (racemic) [Example 65, (±)-3-(4,3′-Dichloro-biphenyl-2-yl)-pyrrolidine] reads 0.13 µM; that for `Cc1cccc(-c2ccc(Cl)cc2OC2CNC2)c1` [Example 38, 3-(4-Chloro-3′-methyl-biphenyl-2-yloxy)-azetidine], 0.189 µM.
As to `COc1ccc(-c2ccccc2Cl)cc1OC1CN(C(C)C)C1` [Example 18, 3-(2′-Chloro-4-methoxy-biphenyl-3-yloxy)-1-isopropyl-azetidine trifluoroacetate], the Ki came out at 0.533 µM.
As for `c1ccc(-c2ccccc2C2CCNC2)cc1` (racemic) [Example 51, (±)-3-Biphenyl-2-yl-pyrrolidine], the figure is 0.12 µM; as for `Cc1ccccc1-c1ccc(Cl)c(OC2CNC2)c1` [Example 26, 3-(4-Chloro-2′-methyl-biphenyl-3-yloxy)-azetidine trifluoroacetate], 0.0155 µM; as for `Cc1ccc(-c2ccc(Cl)cc2C2CCNC2)cc1C` (racemic) [Example 67, (±)-3-(4-Chloro-3′,4′-dimethyl-biphenyl-2-yl)-pyrrolidine], 0.12 µM.
The result for `COc1ccc(-c2ccc(C)c(C)c2)cc1OC1CNC1` [Example 14, 3-(4-Methoxy-3′,4′-dimethyl-biphenyl-3-yloxy)-azetidine] reads 0.25 µM; that for `COc1ccc(-c2ccccc2Cl)cc1OC1CN(C2CCC2)C1` [Example 19, 3-(2′-Chloro-4-methoxy-biphenyl-3-yloxy)-1-cyclobutyl-azetidine trifluoroacetate], 0.3 µM.
As for `COc1ccc(-c2ccccc2C#N)cc1OC1CNC1` [Example 3, 3′-(Azetidin-3-yloxy)-4′-methoxy-biphenyl-2-carbonitrile trifluoroacetate], the figure is 0.0339 µM; as for `COc1ccc(-c2ccccc2OC(F)(F)F)cc1C1CCNC1` (racemic) [Example 48, (±)-3-(4-Methoxy-2′-trifluoromethoxy-biphenyl-3-yl)-pyrrolidine], 0.0198 µM.
As for `COc1ccc(-c2ccc(F)c(C)c2)cc1OC1CNC1` [Example 12, 3-(4′-Fluoro-4-methoxy-3′-methyl-biphenyl-3-yloxy)-azetidine], the Ki came out at 0.77 µM.
As for `Cc1ccc(-c2ccccc2C2CCNC2)cc1` (racemic) [Example 54, (±)-3-(4′-Methyl-biphenyl-2-yl)-pyrrolidine], the figure is 0.12 µM; as for `Cc1ccccc1-c1ccc(OC(C)C)c(OC2CNC2)c1` [Example 36, 3-(4-Isopropoxy-2′-methyl-biphenyl-3-yloxy)-azetidine], 10 µM.
For the compound `COc1ccc(-c2ccc(C)cc2)cc1OC1CNC1` [Example 11, 3-(4-Methoxy-4′-methyl-biphenyl-3-yloxy)-azetidine], the Ki was 0.76 µM.
As for `FC(F)(F)c1ccccc1-c1ccc(Cl)c(OC2CNC2)c1` [Example 25, 3-(4-Chloro-2′-trifluoromethyl-biphenyl-3-yloxy)-azetidine trifluoroacetate], the figure is 0.0105 µM.
The result for `FC(F)(F)c1ccccc1-c1cccc(OC2CNC2)c1` [Example 20, 3-(2′-Trifluoromethyl-biphenyl-3-yloxy)-azetidine] reads 0.0255 µM.
`COc1ccc(-c2ccccc2OC(F)(F)F)cc1OC1CNC1` [Example 7, 3-(4-Methoxy-2′-trifluoromethoxy-biphenyl-3-yloxy)-azetidine]: the Ki turned out to be 0.01 µM.
As for `COc1ccc(-c2ccc(F)cc2C)cc1OC1CNC1` [Example 2, 3-(4′-Fluoro-4-methoxy-2′-methyl-biphenyl-3-yloxy)-azetidine], the figure is 0.021 µM.
Regarding `COc1ccc(C)cc1-c1ccccc1C1CCNC1` (racemic) [Example 63, (±)-3-(2′-Methoxy-5′-methyl-biphenyl-2-yl)-pyrrolidine], the Ki was found to be 1.7 µM.
As for `COc1ccc(-c2cccc(F)c2C)cc1C1CCNC1` (racemic) [Example 44, (±)-3-(3′-Fluoro-4-methoxy-2′-methyl-biphenyl-3-yl)-pyrrolidine], the figure is 0.019 µM; as for `N#Cc1ccc(-c2ccccc2)cc1OC1CNC1` [Example 29, 3-(Azetidin-3-yloxy)-biphenyl-4-carbonitrile], 10 µM; as for `COc1ccc(-c2ccccc2C(F)(F)F)cc1OC1CCNCC1` [Example 69, 4-(4-Methoxy-2′-trifluoromethyl-biphenyl-3-yloxy)-piperidine], 0.059 µM.
As for `COc1ccc(-c2ccccc2OC)cc1OC1CNC1` [Example 9, 3-(4,2′-Dimethoxy-biphenyl-3-yloxy)-azetidine], the figure is 0.05 µM.
The result for `COc1ccc(-c2ccccc2)cc1C1CCN(C)C1` (racemic) [Example 50, (±)-3-(4-Methoxy-biphenyl-3-yl)-1-methyl-pyrrolidine] reads 0.15 µM.
Take `Cc1cccc(-c2ccccc2C2CCNC2)c1` (racemic) [Example 52, (±)-3-(3′-Methyl-biphenyl-2-yl)-pyrrolidine]: the Ki stood at 0.0802 µM.
As for `Cc1ccccc1-c1ccccc1C1CCN(C)C1` (racemic) [Example 60, (±)-1-Methyl-3-(2′-methyl-biphenyl-2-yl)-pyrrolidine], the figure is 0.33 µM; as for `Clc1ccc(-c2ccccc2Cl)cc1OC1CNC1` [Example 24, 3-(4,2′-Dichloro-biphenyl-3-yloxy)-azetidine trifluoroacetate], 0.00889 µM; as for `COc1ccc(-c2ccccc2)cc1OC1CCNCC1` [Example 68, 4-(4-Methoxy-biphenyl-3-yloxy)-piperidine], 1.48 µM.
As for `COc1ccc(-c2ccccc2C)cc1C1CCNC1` (racemic) [Example 43, (±)-3-(4-Methoxy-2′-methyl-biphenyl-3-yl)-pyrrolidine], the figure is 0.00546 µM.
The result for `Cc1ccccc1-c1cccc(OC2CNC2)c1` [Example 23, 3-(2′-Methyl-biphenyl-3-yloxy)-azetidine] reads 0.067 µM.
As to `Cc1ccccc1-c1ccc(OCC(F)(F)F)c(OC2CNC2)c1` [Example 33, 3-[2′-Methyl-4-(2,2,2-trifluoro-ethoxy)-biphenyl-3-yloxy]-azetidine], the inhibition constant Ki was determined as 0.525 µM.
The result for `Cc1ccc(-c2ccc(Cl)cc2OC2CNC2)cc1C` [Example 42, 3-(4-Chloro-3′,4′-dimethyl-biphenyl-2-yloxy)-azetidine] reads 0.21 µM.
As for `Cc1ccccc1-c1ccc(C#N)c(OC2CNC2)c1` [Example 30, 3-(Azetidin-3-yloxy)-2′-methyl-biphenyl-4-carbonitrile], the figure is 0.508 µM; as for `Cc1ccccc1-c1ccc(OCC2CC2)c(OC2CNC2)c1` [Example 35, 3-(4-Cyclopropylmethoxy-2′-methyl-biphenyl-3-yloxy)-azetidine], 0.755 µM.
The result for `COc1ccc(-c2ccccc2)cc1OC1CNC1` [Example 15, 3-(4-Methoxy-biphenyl-3-yloxy)-azetidine] reads 0.12 µM; that for `Cc1ccc(-c2ccccc2C2CCNC2)cc1C` (racemic) [Example 57, (±)-3-(3′,4′-Dimethyl-biphenyl-2-yl)-pyrrolidine], 0.0559 µM; that for `N#Cc1ccc(-c2ccccc2C(F)(F)F)cc1OC1CNC1` [Example 28, 3-(Azetidin-3-yloxy)-2′-trifluoromethyl-biphenyl-4-carbonitrile], 0.127 µM.
For the compound `COc1ccc(-c2ccccc2)cc1C1CCNC1` (racemic) [Example 49, (±)-3-(4-Methoxy-biphenyl-3-yl)-pyrrolidine], the Ki amounted to 0.13 µM.
